Laboratory results taken from PubChem BioAssay (NCI).
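Growth conditions: 96-well plates. Treatment: test compound, 48 hours, 5 concentrations. Analysis: linear interpolation between bracketing concentrations; unreached endpoints set to highest concentration. GI50: concentration for 50% inhibition of growth. At the TGI there is no net growth.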

Key:
Experiment in all cases: NCI anticancer screen, dose series, 48 h
786-0 renal = system: 786-0 renal
A498 renal = system: A498 renal
A549 NSCLC = system: A549 NSCLC
ACHN renal = system: ACHN renal
CAKI-1 renal = system: CAKI-1 renal
CCRF-CEM leukemia = system: CCRF-CEM leukemia
COLO 205 colon = system: COLO 205 colon
DLD-1 colon = system: DLD-1 colon
DMS 114 small cell lung = system: DMS 114 small cell lung
EKVX NSCLC = system: EKVX NSCLC
HCC-2998 colon = system: HCC-2998 colon
HCT-116 colon = system: HCT-116 colon
HOP-18 NSCLC = system: HOP-18 NSCLC
HOP-62 NSCLC = system: HOP-62 NSCLC
HOP-92 NSCLC = system: HOP-92 NSCLC
HT29 colon = system: HT29 colon
IGROV1 ovarian = system: IGROV1 ovarian
K-562 leukemia = system: K-562 leukemia
KM12 colon = system: KM12 colon
KM20L2 colon = system: KM20L2 colon
LOX IMVI melanoma = system: LOX IMVI melanoma
LXFL 529 NSCLC = system: LXFL 529 NSCLC
M14 melanoma = system: M14 melanoma
M19-MEL melanoma = system: M19-MEL melanoma
MALME-3M melanoma = system: MALME-3M melanoma
MOLT-4 leukemia = system: MOLT-4 leukemia
NCI-H226 lung = system: NCI-H226 lung
NCI-H23 lung = system: NCI-H23 lung
NCI-H522 lung = system: NCI-H522 lung
OVCAR-3 ovarian = system: OVCAR-3 ovarian
OVCAR-4 ovarian = system: OVCAR-4 ovarian
OVCAR-5 ovarian = system: OVCAR-5 ovarian
OVCAR-8 ovarian = system: OVCAR-8 ovarian
RPMI-8226 leukemia = system: RPMI-8226 leukemia
SF-268 CNS = system: SF-268 CNS
SF-295 CNS = system: SF-295 CNS
SF-539 CNS = system: SF-539 CNS
SK-MEL-5 melanoma = system: SK-MEL-5 melanoma
SK-OV-3 ovarian = system: SK-OV-3 ovarian
SN12C renal = system: SN12C renal
SNB-19 CNS = system: SNB-19 CNS
SNB-75 CNS = system: SNB-75 CNS
SR leukemia = system: SR leukemia
SW-620 colon = system: SW-620 colon
TK-10 renal = system: TK-10 renal
U251 CNS = system: U251 CNS
UACC-257 melanoma = system: UACC-257 melanoma
UACC-62 melanoma = system: UACC-62 melanoma
UO-31 renal = system: UO-31 renal
XF 498 CNS = system: XF 498 CNS

CN(C)c1ccc(N=Cc2c([O-])ccc3ccccc23)cc1.[C-]#[O+].[C-]#[O+].[Ir]
GI50 (786-0 renal): 25.1 µM
TGI (786-0 renal): 65.1 µM
GI50 (A498 renal): 22.1 µM
TGI (A498 renal): 51.5 µM
GI50 (A549 NSCLC): 31.8 µM
TGI (A549 NSCLC): 89.3 µM
GI50 (ACHN renal): 18.8 µM
TGI (ACHN renal): 43.7 µM
GI50 (CAKI-1 renal): 22 µM
TGI (CAKI-1 renal): 40.7 µM
GI50 (CCRF-CEM leukemia): 4.76 µM
TGI (CCRF-CEM leukemia): > 100 µM
GI50 (COLO 205 colon): 17.5 µM
TGI (COLO 205 colon): 33.9 µM
GI50 (DLD-1 colon): 17.4 µM
TGI (DLD-1 colon): 37.6 µM
GI50 (DMS 114 small cell lung): 10.5 µM
TGI (DMS 114 small cell lung): 22.8 µM
GI50 (EKVX NSCLC): 24.9 µM
TGI (EKVX NSCLC): 64.6 µM
GI50 (HCC-2998 colon): 18.8 µM
TGI (HCC-2998 colon): 35.3 µM
GI50 (HCT-116 colon): 17.7 µM
TGI (HCT-116 colon): 32.1 µM
GI50 (HOP-18 NSCLC): 13 µM
TGI (HOP-18 NSCLC): 27.6 µM
GI50 (HOP-62 NSCLC): 44.1 µM
TGI (HOP-62 NSCLC): > 100 µM
GI50 (HOP-92 NSCLC): 17.2 µM
TGI (HOP-92 NSCLC): 37.3 µM
GI50 (HT29 colon): 19.2 µM
TGI (HT29 colon): 40.7 µM
GI50 (IGROV1 ovarian): 21.1 µM
TGI (IGROV1 ovarian): 65 µM
GI50 (K-562 leukemia): 37 µM
TGI (K-562 leukemia): > 100 µM
GI50 (KM12 colon): 18 µM
TGI (KM12 colon): 37.7 µM
GI50 (KM20L2 colon): 18.7 µM
TGI (KM20L2 colon): 33.4 µM
GI50 (LOX IMVI melanoma): 15.4 µM
TGI (LOX IMVI melanoma): 30.4 µM
GI50 (LXFL 529 NSCLC): 12.5 µM
TGI (LXFL 529 NSCLC): 25.9 µM
GI50 (M14 melanoma): 20.7 µM
TGI (M14 melanoma): 46.1 µM
GI50 (M19-MEL melanoma): 16.2 µM
TGI (M19-MEL melanoma): 30.9 µM
GI50 (MALME-3M melanoma): 20.7 µM
TGI (MALME-3M melanoma): 41.7 µM
GI50 (MOLT-4 leukemia): 15.4 µM
TGI (MOLT-4 leukemia): 95 µM
GI50 (NCI-H226 lung): 15.2 µM
TGI (NCI-H226 lung): 33.1 µM
GI50 (NCI-H23 lung): 15.3 µM
TGI (NCI-H23 lung): 36.8 µM
GI50 (NCI-H522 lung): 5.7 µM
TGI (NCI-H522 lung): 18.6 µM
GI50 (OVCAR-3 ovarian): 16.6 µM
TGI (OVCAR-3 ovarian): 32.4 µM
GI50 (OVCAR-4 ovarian): 12.2 µM
TGI (OVCAR-4 ovarian): 26.1 µM
GI50 (OVCAR-5 ovarian): 29.1 µM
TGI (OVCAR-5 ovarian): 64.3 µM
GI50 (OVCAR-8 ovarian): 28.8 µM
TGI (OVCAR-8 ovarian): > 100 µM
GI50 (RPMI-8226 leukemia): 23.2 µM
TGI (RPMI-8226 leukemia): > 100 µM
GI50 (SF-268 CNS): 22.5 µM
TGI (SF-268 CNS): 50.6 µM
GI50 (SF-295 CNS): 20 µM
TGI (SF-295 CNS): 55 µM
GI50 (SF-539 CNS): 19.9 µM
TGI (SF-539 CNS): 40.7 µM
GI50 (SK-MEL-5 melanoma): 16.4 µM
TGI (SK-MEL-5 melanoma): 31.2 µM
GI50 (SK-OV-3 ovarian): 34.4 µM
TGI (SK-OV-3 ovarian): > 100 µM
GI50 (SN12C renal): 19 µM
TGI (SN12C renal): 35.5 µM
GI50 (SNB-19 CNS): 24.8 µM
TGI (SNB-19 CNS): 64.3 µM
GI50 (SNB-75 CNS): 19.3 µM
TGI (SNB-75 CNS): 50.4 µM
GI50 (SR leukemia): 15.4 µM
TGI (SR leukemia): 44.1 µM
GI50 (SW-620 colon): 16.7 µM
TGI (SW-620 colon): 32.5 µM
GI50 (TK-10 renal): 22.5 µM
TGI (TK-10 renal): 53.3 µM
GI50 (U251 CNS): 15.7 µM
TGI (U251 CNS): 30.4 µM
GI50 (UACC-257 melanoma): 16.3 µM
TGI (UACC-257 melanoma): 37.1 µM
GI50 (UACC-62 melanoma): 17.2 µM
TGI (UACC-62 melanoma): 35.9 µM
GI50 (UO-31 renal): 15.6 µM
TGI (UO-31 renal): 36.4 µM
GI50 (XF 498 CNS): 20.5 µM
TGI (XF 498 CNS): 48.4 µM
